Legend:
Assay type in all cases: in vivo
[1] = tested on: crabgrass (Digitaria sanguinalis); assay: Test B postemergence
Outline: (§1)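 Seeds were planted and sprayed preemergence with test chemical in a non-phytotoxic solvent mixture containing surfactant; postemergence plants (2 to 18 cm, 1- to 4-leaf stage) received the same formulation. Greenhouse hold 13 to 15 days, then visual rating versus untreated controls on a 0–100 scale (0 no effect, 100 complete control).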

[2] = tested on: barnyardgrass (Echinochloa crus-galli); assay: Test B postemergence
Outline: as §1

[3] = tested on: giant foxtail (Setaria faberii); assay: Test B postemergence
Outline: as §1

[4] = tested on: lambsquarters (Chenopodium album); assay: Test B postemergence
Outline: as §1

[5] = tested on: cocklebur (Xanthium strumarium); assay: Test B postemergence
Outline: as §1

[6] = tested on: velvetleaf (Abutilon theophrasti); assay: Test B postemergence
Outline: as §1

[7] = tested on: blackgrass (Alopecurus myosuroides); assay: Test B postemergence
Outline: as §1

[8] = tested on: morning glory (Ipomoea hederacea); assay: Test B postemergence
Outline: as §1

[9] = tested on: wheat (Triticum aestivum); assay: Test B postemergence
Outline: as §1

[10] = tested on: Surinam grass (Brachiaria decumbens); assay: Test B postemergence
Outline: as §1

wild oat (Avena fatua) = assay: Test B postemergence
Outline: as §1

[11] = tested on: pigweed (Amaranthus retroflexus); assay: Test B postemergence
Outline: as §1

corn (Zea mays) [12] = assay: Test B postemergence
Outline: as §1

rice (Oryza saliva) [13] = assay: Test C flooded paddy test; settings: for Rice plant response rating: Flooded Paddy, scale 0 to 100, 0 no effect, 100 complete control; for Plant response rating, Rice: scale 0 to 100 (0 no effect, 100 complete control)
Outline: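 Response on a 0-to-100 scale (no effect to complete control) was assessed by eye versus controls. Plants had reached 2 leaves when treated in flooded paddy conditions. The assessment took place after 12–14 days of greenhouse growth.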

Sunflower = assay: Test C preemergence; settings: scale 0 to 100, 0 no effect, 100 complete control
[14] = tested on: crabgrass (Digitaria sanguinalis); assay: Test B preemergence
Outline: as §1

[15] = tested on: barnyardgrass (Echinochloa crus-galli); assay: Test B preemergence
Outline: as §1

[16] = tested on: giant foxtail (Setaria faberii); assay: Test B preemergence
Outline: as §1

[17] = tested on: lambsquarters (Chenopodium album); assay: Test B preemergence
Outline: as §1

rice (Oryza saliva) [18] = assay: Test B preemergence
Outline: as §1

[19] = tested on: cocklebur (Xanthium strumarium); assay: Test B preemergence
Outline: as §1

[20] = tested on: velvetleaf (Abutilon theophrasti); assay: Test B preemergence
Outline: as §1

[21] = tested on: morning glory (Ipomoea hederacea); assay: Test B preemergence
Outline: as §1

[22] = tested on: Surinam grass (Brachiaria decumbens); assay: Test B preemergence
Outline: as §1

[23] = tested on: pigweed (Amaranthus retroflexus); assay: Test B preemergence
Outline: as §1

corn (Zea mays) [24] = assay: Test B preemergence
Outline: as §1

Nightshade = assay: Test C preemergence; settings: visual evaluation after 12 to 14 days
[25] = Rate 125 g/ha, scale 0 (no effect) to 100 (complete control), 13 to 15 days
[26] = Rate 500 g/ha, scale 0 to 100, 0 is no effect, 100 is complete control, 13 to 15 days
[27] = flooded paddy test, Rate 62 g/ha
[28] = flooded paddy test, Rate 125 g/ha
[29] = preemergence, Rate 125 g/ha, scale 0 to 100, 0 no effect, 100 complete control
[30] = Preemergence, Rate 500 g/ha, scale 0 to 100, 0 no effect, 100 complete control
[31] = Rate 125 g/ha, scale 0 to 100, 0 no effect, 100 complete control
[32] = preemergence, Rate 125 g/ha, scale of 0 to 100 where 0 is no effect and 100 is complete control, 13 to 15 days

## CC(C)(C)c1ccn(C2CCN(c3ccc(Cl)c(Cl)c3)C2=O)n1 (centres unmarked) [Compound 34]
[1]; [25]
  Plant response rating, Crabgrass: 0
[1]; [26]
  Plant response rating, Crabgrass: 0
[2]; [25]
  Plant response rating, Barnyardgrass: 0
[2]; [26]
  Plant response rating, Barnyardgrass: 0
[3]; [25]
  Plant response rating, Foxtail, Giant: 0
[3]; [26]
  Plant response rating, Foxtail, Giant: 0
[4]; [25]
  Plant response rating, Lambsquarters: 90
[4]; [26]
  Plant response rating, Lambsquarters: 100
[5]; [25]
  Plant response rating, Cocklebur: 0
[5]; [26]
  Plant response rating, Cocklebur: 0
[6]; [25]
  Plant response rating, Velvetleaf: 0
[6]; [26]
  Plant response rating, Velvetleaf: 0
[7]; [25]
  Plant response rating, Blackgrass: 0
[7]; [26]
  Plant response rating, Blackgrass: 0
[8]; [25]
  Plant response rating, Morningglory: 0
[8]; [26]
  Plant response rating, Morningglory: 0
[9]; [25]
  Plant response rating, Wheat: 0
[9]; [26]
  Plant response rating, Wheat: 0
[10]; [25]
  Plant response rating, Surinam grass: 0
[10]; [26]
  Plant response rating, Surinam grass: 0
Wild oat (Avena fatua); [25]
  Plant response rating, Wild Oat: 0
Wild oat (Avena fatua); [26]
  Plant response rating, Wild Oat: 0
[11]; [25]
  Plant response rating, Pigweed: 90
[11]; [26]
  Plant response rating, Pigweed: 90
Corn (Zea mays) [12]; [25]
  Plant response rating, Corn: 0
Corn (Zea mays) [12]; [26]
  Plant response rating, Corn: 0
Rice (Oryza saliva) [13]; Rate 250 g/ha
  Rice plant response rating: 0
Rice (Oryza saliva) [13]; Rate 500 g/ha
  Rice plant response rating: 20
Rice (Oryza saliva) [13]; [27]
  Plant response rating, Rice: 0
Rice (Oryza saliva) [13]; [28]
  Plant response rating, Rice: 0
Sunflower; Rate 125 g/ha
  Plant response rating, Sunflower: 0
[14]; [29]
  Plant response rating, Crabgrass: 100
[15]; [30]
  Plant response rating, Barnyardgrass: 60
[15]; [29]
  Plant response rating, Barnyardgrass: 0
[16]; [30]
  Plant response rating, Foxtail, Giant: 70
[16]; [29]
  Plant response rating, Foxtail, Giant: 0
[17]; [30]
  Plant response rating, Lambsquarters: 100
[17]; [29]
  Plant response rating, Lambsquarters: 20
Rice (Oryza saliva) [18]; [30]
  Plant response rating, Rice: 0
[19]; [30]
  Plant response rating, Cocklebur: 0
[19]; [29]
  Plant response rating, Cocklebur: 0
[20]; [30]
  Plant response rating, Velvetleaf: 100
[21]; [30]
  Plant response rating, Morningglory: 0
[22]; [30]
  Plant response rating, Surinam grass: 20
[22]; [29]
  Plant response rating, Surinam grass: 0
[23]; [30]
  Plant response rating, Pigweed: 100
Corn (Zea mays) [24]; [30]
  Plant response rating, Corn: 0
Corn (Zea mays) [24]; [29]
  Plant response rating, Corn: 0
Nightshade; Rate 250 g/ha
  Plant response rating (0 to 100), Nightshade: 0

## CC(C)c1ccn(C2OCN(c3cccc(C(F)(F)F)c3)C2=O)n1 (centres unmarked) [Compound 27]
[1]; [25]
  Plant response rating, Crabgrass: 20
[1]; [26]
  Plant response rating, Crabgrass: 40
[2]; [25]
  Plant response rating, Barnyardgrass: 20
[2]; [26]
  Plant response rating, Barnyardgrass: 60
[3]; [25]
  Plant response rating, Foxtail, Giant: 0
[3]; [26]
  Plant response rating, Foxtail, Giant: 30
[4]; [25]
  Plant response rating, Lambsquarters: 50
[4]; [26]
  Plant response rating, Lambsquarters: 90
[5]; [25]
  Plant response rating, Cocklebur: 0
[5]; [26]
  Plant response rating, Cocklebur: 30
[6]; [25]
  Plant response rating, Velvetleaf: 0
[6]; [26]
  Plant response rating, Velvetleaf: 0
[7]; [25]
  Plant response rating, Blackgrass: 0
[7]; [26]
  Plant response rating, Blackgrass: 0
[8]; [25]
  Plant response rating, Morningglory: 0
[8]; [26]
  Plant response rating, Morningglory: 50
[9]; [25]
  Plant response rating, Wheat: 0
[9]; [26]
  Plant response rating, Wheat: 0
[10]; [25]
  Plant response rating, Surinam grass: 0
[10]; [26]
  Plant response rating, Surinam grass: 20
Wild oat (Avena fatua); [25]
  Plant response rating, Wild Oat: 0
Wild oat (Avena fatua); [26]
  Plant response rating, Wild Oat: 0
[11]; [25]
  Plant response rating, Pigweed: 40
[11]; [26]
  Plant response rating, Pigweed: 60
Corn (Zea mays) [12]; [25]
  Plant response rating, Corn: 0
Corn (Zea mays) [12]; [26]
  Plant response rating, Corn: 10
Rice (Oryza saliva) [13]; Rate 250 g/ha
  Rice plant response rating: 40
Rice (Oryza saliva) [13]; Rate 500 g/ha
  Rice plant response rating: 70
Rice (Oryza saliva) [13]; [27]
  Plant response rating, Rice: 0
Rice (Oryza saliva) [13]; [28]
  Plant response rating, Rice: 40
Sunflower; Rate 125 g/ha
  Plant response rating, Sunflower: 20
[14]; [30]
  Plant response rating, Crabgrass: 90
[14]; [29]
  Plant response rating, Crabgrass: 0
[15]; [30]
  Plant response rating, Barnyardgrass: 100
[15]; [29]
  Plant response rating, Barnyardgrass: 30
[16]; [30]
  Plant response rating, Foxtail, Giant: 90
[16]; [29]
  Plant response rating, Foxtail, Giant: 0
[17]; [30]
  Plant response rating, Lambsquarters: 100
[17]; [29]
  Plant response rating, Lambsquarters: 100
Rice (Oryza saliva) [18]; [30]
  Plant response rating, Rice: 40
Rice (Oryza saliva) [18]; [29]
  Plant response rating, Rice: 0
[19]; [30]
  Plant response rating, Cocklebur: 0
[19]; [29]
  Plant response rating, Cocklebur: 0
[20]; [30]
  Plant response rating, Velvetleaf: 0
[20]; [29]
  Plant response rating, Velvetleaf: 0
[21]; [30]
  Plant response rating, Morningglory: 0
[21]; [29]
  Plant response rating, Morningglory: 0
[22]; [30]
  Plant response rating, Surinam grass: 0
[22]; [29]
  Plant response rating, Surinam grass: 0
[23]; [30]
  Plant response rating, Pigweed: 100
[23]; [29]
  Plant response rating, Pigweed: 100
Corn (Zea mays) [24]; [30]
  Plant response rating, Corn: 0
Corn (Zea mays) [24]; [29]
  Plant response rating, Corn: 0
Nightshade; Rate 250 g/ha
  Plant response rating (0 to 100), Nightshade: 0

## CCCC(C)c1ccn(C2CCN(c3cccc(OCC)c3)C2=O)n1 (centres unmarked) [Compound 129]
[1]; [31]
  Plant response rating, Crabgrass: 0
[2]; [31]
  Plant response rating, Barnyardgrass: 0
[2]; [26]
  Plant response rating, Barnyardgrass: 60
[3]; [31]
  Plant response rating, Foxtail, Giant: 0
[4]; [31]
  Plant response rating, Lambsquarters: 100
[5]; [31]
  Plant response rating, Cocklebur: 0
[5]; [26]
  Plant response rating, Cocklebur: 30
[6]; [31]
  Plant response rating, Velvetleaf: 0
[7]; [31]
  Plant response rating, Blackgrass: 0
[7]; [26]
  Plant response rating, Blackgrass: 0
[8]; [31]
  Plant response rating, Morningglory: 0
[9]; [31]
  Plant response rating, Wheat: 0
[10]; [31]
  Plant response rating, Surinam grass: 0
[10]; [26]
  Plant response rating, Surinam grass: 0
Wild oat (Avena fatua); [31]
  Plant response rating, Wild Oat: 0
[11]; [31]
  Plant response rating, Pigweed: 0
Corn (Zea mays) [12]; [31]
  Plant response rating, Corn: 0
Corn (Zea mays) [12]; [26]
  Plant response rating, Corn: 0
Rice (Oryza saliva) [13]; Rate 250 g/ha
  Rice plant response rating: 0
Rice (Oryza saliva) [13]; Rate 500 g/ha
  Rice plant response rating: 35
Rice (Oryza saliva) [13]; [28]
  Plant response rating, Rice: 0
Rice (Oryza saliva) [13]; flooded paddy test, Rate 62 g/ha, visually evaluated after 12 to 14 days, 0 = no effect, 100 = complete control
  Plant response rating (scale 0 to 100), Rice: 0
Sunflower; Rate 250 g/ha
  Plant response rating, Sunflower: 10
[14]; [30]
  Plant response rating, Crabgrass: 100
[14]; [32]
  Plant response rating, Crabgrass: 100
[15]; [30]
  Plant response rating, Barnyardgrass: 100
[15]; [32]
  Plant response rating, Barnyardgrass: 100
[16]; [30]
  Plant response rating, Foxtail, Giant: 100
[16]; [32]
  Plant response rating, Foxtail, Giant: 100
[17]; [30]
  Plant response rating, Lambsquarters: 100
[17]; [32]
  Plant response rating, Lambsquarters: 100
Rice (Oryza saliva) [18]; [30]
  Plant response rating, Rice: 50
Rice (Oryza saliva) [18]; [32]
  Plant response rating, Rice: 30
[19]; [30]
  Plant response rating, Cocklebur: 0
[19]; [32]
  Plant response rating, Cocklebur: 0
[20]; [30]
  Plant response rating, Velvetleaf: 0
[20]; [32]
  Plant response rating, Velvetleaf: 0
[21]; [30]
  Plant response rating, Morningglory: 0
[21]; [32]
  Plant response rating, Morningglory: 0
[22]; [30]
  Plant response rating, Surinam grass: 100
[22]; [32]
  Plant response rating, Surinam grass: 90
[23]; [30]
  Plant response rating, Pigweed: 100
[23]; [32]
  Plant response rating, Pigweed: 100
Corn (Zea mays) [24]; [30]
  Plant response rating, Corn: 30
Corn (Zea mays) [24]; [32]
  Plant response rating, Corn: 20
Nightshade; Rate 500 g/ha
  Plant response rating (0 to 100), Nightshade: 60

Reference: US7138361B2, “Herbicidal heterocycles” (E. I. du Pont de Nemours and Company, priority 2000, dated 2006)
